Data as given in patent US20120184613A1, “SULFUR-CONTAINING COMPOUND AND USE THEREOF” (SUMITOMO CHEMICAL COMPANY, LIMITED, priority 2008, published 2012).

Tested on: Blattalla germanica
Experiment: Test Example 3: filter paper with sucrose bait, death rate of Blattalla germanica
Assay type: in vivo
Conditions: 500 ppm test solution, 0.7 ml on filter paper; 2 male imagoes; after 6 days
Description: A formulation of any one of the present compounds (3) and (4) obtained according to Formulation Example 5 was diluted with water to prepare a test solution having 500 ppm of the active ingredient.
A filter paper having a diameter of 5.5 cm was spread on the bottom of a polyethylene cup having a diameter of 5.5 cm and 0.7 ml of the test solution was added dropwise onto the filter paper. As a bait, 30 mg of sucrose was uniformly placed on the filter paper. Into the polyethylene cup, 2 male imagoes of Blattalla germanica were released and the cup was sealed with a lid. After 6 days, the number of surviving or dead Blattalla germanica was counted and the death rate of the pest was calculated.

Structure (SMILES)	pest death rate [%]
CC(C)OCCS(=O)(=O)C(C#N)CCC(F)(F)C(F)(F)F (centres unmarked) [(3)]	100
COC(C)(C)CS(=O)(=O)C(C#N)CCC(F)(F)C(F)(F)F (centres unmarked) [(4)]	100
